These results are taken from patent US4537962A, “Substituted 1,3,4-thiadiazolo[3,2-A]pyrimidines and compositions containing them” (Farmitalia Carlo Erba, S.p.A., priority 1982, dated 1985).

A short description of data set [1]: approximate acute toxicity (LD50) in the mouse. As to conditions: in vivo, po, per os, single administration of increasing doses, measured on the seventh day after the day of treatment. The source says: In view of their high therapeutic index, the compounds of the invention can be used safely in medicine, For example, the approximate acute toxicity (LD50) of the compounds 7-trans-(2-phenyl-ethenyl)-5H-1,3,4-thiadiazolo[3,2-a]pyrimidine-5-one, 2-methyl-7-trans-(2-phenyl-ethenyl)-5H-1,3,4-thiadiazolo[3,2-a]pyrimidine- 5-one, 7-trans-[2-(2,6-dichloro-phenyl)-ethenyl]-5H-1,3,4-thiadiazolo[3,2-a]pyrimidine-5-one, 7-trans-[2-(3-pyridyl)-ethenyl]-5H-1,3,4-thiadiazolo[3,2-a]pyrimidine-5-one, 7-trans-[2-(4-fluoro-phenyl)-ethenyl]-5H-1,3,4-thiadiazolo[3,2-a]pyrimidine-5-one, 2-phenyl-7-trans-[2-(3-pyridyl)-ethenyl]-5H-1,3,4-thiadiazolo[3,2-a]pyrimidine-5-one and 2-(4-methyl-phenyl)-7-trans-[2-(3-pyridyl)-ethenyl]-5H-1,3,4-thiadiazolo[3,2-a]pyrimidine-5-one in the mouse, determined by single administration of increasing doses and measured on the seventh day after the day of treatment, is higher than 800 mg/kg per os. Analogous toxicity data have been found for the other compounds of the invention.

In data set [2] the test system is gastric secretion. The data set can be described thus: gastric antisecretory activity in rats by the pylorus ligature technique (method of H. Shay et al.). To be noted: 4 h; approximate ED50; rat, intraduodenal, four hours after pylorus ligature. It counts as in vivo, Sprague-Dawley male rats. The protocol:
Gastric antisecretory activity was evaluated in rats by the pylorus ligature technique. Six Sprague-Dawley male rats (110-130 g) were used for each group. Twenty-four hours before the test, the rats were deprived of food but their water supply was maintained. On the day of the operation, the pylorus was ligated under light ether anaesthesia. Each compound was injected intraduodenally (i.d.) at the time of the ligature. Four hours after the ligature the rats were sacrificed, the stomach secretion was collected and centrifuged at 3500 r.p.m. for 10 minutes, and the volume, less sediment, was determined.
The amount of the free hydrochloric acid in the gastrc juice was determined by titration against 0.01N sodium hydroxide to pH 7.0 on the pH-meter.

Data set [3] concerns restraint ulcers. In words: inhibition of restraint ulcers in rats (anti-ulcerogenic activity, method of Bonfils et al.). To be noted: po; approximate ED50; rat, p.o. one hour before the immobilization; 4 hours immobilization; read-out: Antiulcerogenic activity p.o., ED50. It counts as in vivo, Sprague-Dawley male rats. An excerpt: The compounds of the present invention are active on the gastroenteric system, in particular they are endowed with anti-ulcerogenic and gastric anti-secretory activity and are therefore useful in therapy, for example in the prevention and treatment of peptic, e.g. duodenal, gastric and exophageal ulcers and to inhibit gastric acid secretion. The compounds of the invention are also useful for reducing the undesirable gastrointestinal side-effects resulting from systemic administration of anti-inflammatory prostaglandin synthetase inhibitors and may be, therefore, used for this purpose in association with them. The anti-ulcerogenic activity of the compounds of the invention is shown, e.g., by the fact that they are active in the test of the inhibition of restraint ulcers in rats, according to the method of Bonfils et al., (Therapie, 1960, 15, 1096; Jap. J. Pharmac. 1968, 18, 9).
Six Sprague-Dawley male rats (100-120 g) fasted 24 hours were used for the experiment: a square flexible small-mesh wire netting was used for the immobilization and 4 hours after the immobilization the rats were sacrificed, their stomachs were removed and the lesions counted under a dissecting microscope. The tested compounds were administered per os (p.o.) one hour before the immobilization.

The LD50 is the dose expected to kill half of the subjects tested. `O=c1cc(/C=C/c2ccc(F)cc2)nc2scnn12`: in data set [1], the LD50 at 168 h is > 800 mg/kg.

In general, ED50 refers to the dose at which the effect has come halfway, by size or by number of responders. As for `Cc1ccc(-c2nn3c(=O)cc(/C=C/c4cccnc4)nc3s2)cc1` [2-(4-methyl-phenyl)-7-trans-[2-(3-pyridyl)-ethenyl]-5H-1,3,4-thiadiazolo[3,2-a]pyrimidine-5-one], the LD50 at 168 h in data set [1] was > 800 mg/kg. Also, in data set [2], the ED50 was ~50 mg/kg.

On to `Cc1nn2c(=O)cc(/C=C/c3ccccc3)nc2s1` [2-methyl-7-trans-(2-phenyl-ethenyl)-5H-1,3,4-thiadiazolo[3,2-a]pyrimidine-5-one], for which, in data set [1], the LD50 at 168 h was > 800 mg/kg.

On to `O=c1cc(/C=C/c2cccnc2)nc2sc(-c3ccccc3)nn12` [2-phenyl-7-trans-[2-(3-pyridyl)-ethenyl]-5H-1,3,4-thiadiazolo[3,2-a]pyrimidine-5-one], for which the ED50 in data set [3] came out at 3 mg/kg. Also, in data set [1], the LD50 at 168 h is > 800 mg/kg.

As for `O=c1cc(/C=C/c2ccccc2)nc2scnn12` [7-trans-(2-phenyl-ethenyl)-5H-1,3,4-thiadiazolo[3,2-a]pyrimidine-5-one], in data set [1], the LD50 at 168 h is > 800 mg/kg.

Consider `O=c1cc(/C=C/c2c(Cl)cccc2Cl)nc2scnn12` [7-trans-[2-(2,6-dichloro-phenyl)-ethenyl]-5H-1,3,4-thiadiazolo[3,2-a]pyrimidine-5-one], for which the LD50 at 168 h in data set [1] was > 800 mg/kg.

For `O=c1cc(/C=C/c2cccnc2)nc2scnn12` [7-trans-[2-(3-pyridyl)-ethenyl]-5H-1,3,4-thiadiazolo[3,2-a]pyrimidine-5-one], the LD50 at 168 h in data set [1] is > 800 mg/kg.
